Earlier results in patent publication US12377108B2 (Curantis UG, priority 2018, dated 2025).

Experiments:
[1] = of the activity of Δ9-THC
[2] = oral administration; first pass hepatic metabolism

Structure (SMILES)	activity relative to Δ9-THC [1] [%]	oral bioavailability [2] [%]
CCCCCc1cc(O)c2c(c1)OC(C)(C)c1ccc(C)cc1-2 [CBN, Cannabinol]	10	
C=C(C)[C@@H]1CCC(C)=C[C@H]1c1c(O)cc(CCCCC)cc1O [CBD, Cannabidiol]		< 5
